Test results taken from patent US6919338B2, “Substituted quinazoline derivatives and their use as inhibitors of aurora-2 kinase” (AstraZeneca AB, priority 2000, dated 2005).

Tests used:
aurora2 kinase = molecular target: T1, aurora2 kinase (Homo sapiens, UniProt O14965); test: In vitro aurora2 kinase inhibition test; format: biochemical
T1 construct: made in house; host or cells: Spodoptera frugiperda Sf21 insect cells (baculovirus)
T1 sequence (O14965 1-403): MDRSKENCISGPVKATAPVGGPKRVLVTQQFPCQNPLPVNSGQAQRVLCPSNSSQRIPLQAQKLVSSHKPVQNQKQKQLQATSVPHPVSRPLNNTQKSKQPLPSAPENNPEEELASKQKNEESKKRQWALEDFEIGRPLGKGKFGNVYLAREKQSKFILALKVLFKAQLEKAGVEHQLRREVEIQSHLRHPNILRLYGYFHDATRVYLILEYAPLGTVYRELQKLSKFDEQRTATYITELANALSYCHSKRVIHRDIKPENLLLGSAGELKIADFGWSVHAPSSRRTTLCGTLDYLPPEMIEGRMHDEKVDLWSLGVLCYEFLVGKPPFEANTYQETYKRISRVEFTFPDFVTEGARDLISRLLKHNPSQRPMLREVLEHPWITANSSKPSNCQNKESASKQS

[1] = test system: human tumour cell line MCF7; test: In vitro cell proliferation assay; format: cell-based; conditions: MCF7, 72 h, MCF-7 cells, 3 days with compound, CyQUANT, read-out: concentration giving 50% inhibition of cell proliferation
Excerpt: (a) In Vitro Cell Proliferation Assay
This assay determines the ability of a test compound to inhibit the growth of adherent mammalian cell lines, for example the human tumour cell line MCF7. MCF-7 (ATCC HTB-22) or other adherent cells were typically seeded at 1×10^3 cells per well (excluding the peripheral wells) in DMEM (Sigma Aldrich) without phenol red, plus 10% foetal calf serum, 1% L-glutamine and 1% penicillin/streptomycin in 96 well tissue culture treated clear plates (Costar). The following day (day 1), the media was removed from a no treatment control plate and the plate stored at −80° C. The remaining plates were dosed with compound (diluted from 10 mM stock in DMSO using DMEM (without phenol red, 10% FCS, 1% L-glutamine, 1% penicillin/streptomycin). Untreated control wells were included on each plate. After 3 days in the presence/absence of compound (day 4) the media was removed and the plates stored at −80° C. Twenty four hours later the plates were thawed at room temperature and cell density determined using the CyQUANT cell proliferation assay kit (c-7026/c-7027 Molecular Probes Inc.) according to manufacturers directions. Briefly, 200 μl of a cell lysis/dye mixture (10 μl of 20× cell lysis buffer B, 190 μl of sterile water, 0.25 μl of CYQUANT GR dye) was added to each well and the plates incubated at room temperature for 5 minutes in the dark. […]

MCF7 cells = test: In vitro cell cycle analysis assay; format: cell-based, human; conditions: 24 hours, 10 μM Compound 52 (text b2735 says 1 μM)
Description: (a) In Vitro Cell Cycle Analysis Assay
This assay determines the ability of a test compound to arrest cells in specific phases of the cell cycle. Many different mammalian cell lines could be used in this assay and MCF7 cells are included here as an example. MCF-7 cells were seeded at 3×10^5 cells per T25 flask (Costar) in 5 ml DMEM (no phenol red 10% FCS, 1% L-glutamine 1% penicillin/streptomycin). Flasks were then incubated overnight in a humidified 37° C. incubator with 5% CO2. The following day 1 ml of DMEM (no phenol red 10% FCS, 1% L-glutamine 1% penicillin/streptomycin) carrying the appropriate concentration of test compound solubilised in DMSO was added to the flask. A no compound control treatments was also included (0.5% DMSO). The cells were then incubated for a defined time (usually 24 hours) with compound. […] The samples were then transferred to LPS tubes and DNA content per cell analysed by Fluorescence activated cell sorting (FACS) using a FACScan flow cytometer (Becton Dickinson). Typically 25000 events were counted and recorded using CellQuest v1.1 software (Verity Software). Cell cycle distribution of the population was calculated using Modfit software (Verity Software) and expressed as percentage of cells in G0/G1, S and G2/M phases of the cell cycle. […]

What does the source list for `COc1cc2c(Nc3nc(CC(=O)Nc4ccc(F)cc4)cs3)ncnc2cc1OCCCN1CCOCC1` [Compound 52]?
IC50 (aurora2 kinase): 167 nM; IC50 [1]: 616 nM; % Cells in G2/M (MCF7 cells): >50%
